Measured values reported in patent publication US9011880B2, “Compounds and methods for treating cancer” (IGF Oncology, LLC, priority 2003, dated 2015).
Where two headings read alike, the source gives them in different places.

Legend:
[1] = humans, cited from earlier work
[2] = test system: LNCAP (human prostate carcinoma); assay: Cell proliferation response to insulin and IGF-1: LNCAP; format: cell-based; conditions: minimal medium, 1 ug/ml insulin or 100 ng/ml IGF-1, 1, 2 and 4 days, data not shown
Protocol: (§1) The cell lines LNCAP, MCF-7, MDA-231, SCK, and HOP-92 were also tested to determine whether the cells increased their proliferation in the presence of insulin or IGF-1. Cells were plated in minimal medium with no addition (negative control), 1 ug/ml insulin, 100 ng/ml IGF-1, or 10% fetal calf serum (positive control), and cell density was monitored at 1, 2, and 4 days after plating. […] (Data not shown).

[3] = test system: MCF-7 (human breast carcinoma); assay: Cell proliferation response to insulin and IGF-1: MCF-7; format: cell-based; conditions: MCF-7, minimal medium, 1 ug/ml insulin or 100 ng/ml IGF-1, 1, 2 and 4 days; data not shown
Protocol: as §1

[4] = test system: MDA-231 (human breast carcinoma); assay: Cell proliferation response to insulin and IGF-1: MDA-231; format: cell-based; conditions: MDA-231, minimal medium, 1 ug/ml insulin or 100 ng/ml IGF-1, 1, 2 and 4 days; data not shown
Protocol: as §1

[5] = test system: SCK (mouse mammary carcinoma); assay: Cell proliferation response to insulin and IGF-1: SCK; format: cell-based; conditions: minimal medium, 1 ug/ml insulin or 100 ng/ml IGF-1, 1, 2 and 4 days, data not shown
Protocol: as §1

IGF-1R = target: T1, IGF-1R (Homo sapiens, UniProt P08069); assay: Competitive binding assay to IGF-1R on MCF7 cell monolayers; conditions: competition against radiolabelled wild-type IGF-1, MCF7 cells
T1 construct: endogenous in cells; host or cells: MCF7 (human breast cancer cell line), near-confluent monolayers
T1 sequence (P08069 31-736 limits assumed): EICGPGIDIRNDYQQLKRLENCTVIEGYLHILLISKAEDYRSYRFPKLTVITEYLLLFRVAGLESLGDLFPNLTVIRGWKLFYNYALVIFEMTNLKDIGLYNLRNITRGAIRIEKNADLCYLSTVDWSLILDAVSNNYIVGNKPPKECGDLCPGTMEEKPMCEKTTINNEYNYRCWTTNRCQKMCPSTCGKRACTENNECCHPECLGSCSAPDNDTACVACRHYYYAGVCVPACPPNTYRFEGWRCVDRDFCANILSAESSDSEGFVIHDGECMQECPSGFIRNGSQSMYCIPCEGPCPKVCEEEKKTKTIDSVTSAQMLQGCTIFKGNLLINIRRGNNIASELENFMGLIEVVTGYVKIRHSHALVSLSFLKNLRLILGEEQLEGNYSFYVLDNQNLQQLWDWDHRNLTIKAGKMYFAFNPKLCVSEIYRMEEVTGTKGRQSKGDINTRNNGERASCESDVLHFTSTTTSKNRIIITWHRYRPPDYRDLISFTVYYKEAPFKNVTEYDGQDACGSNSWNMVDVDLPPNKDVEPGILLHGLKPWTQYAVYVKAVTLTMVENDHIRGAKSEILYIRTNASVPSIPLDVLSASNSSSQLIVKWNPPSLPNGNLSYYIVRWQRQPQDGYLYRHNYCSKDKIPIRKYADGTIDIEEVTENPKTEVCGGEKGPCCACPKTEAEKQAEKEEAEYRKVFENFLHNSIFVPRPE
T1 sequence (P08069 741-1367 limits assumed): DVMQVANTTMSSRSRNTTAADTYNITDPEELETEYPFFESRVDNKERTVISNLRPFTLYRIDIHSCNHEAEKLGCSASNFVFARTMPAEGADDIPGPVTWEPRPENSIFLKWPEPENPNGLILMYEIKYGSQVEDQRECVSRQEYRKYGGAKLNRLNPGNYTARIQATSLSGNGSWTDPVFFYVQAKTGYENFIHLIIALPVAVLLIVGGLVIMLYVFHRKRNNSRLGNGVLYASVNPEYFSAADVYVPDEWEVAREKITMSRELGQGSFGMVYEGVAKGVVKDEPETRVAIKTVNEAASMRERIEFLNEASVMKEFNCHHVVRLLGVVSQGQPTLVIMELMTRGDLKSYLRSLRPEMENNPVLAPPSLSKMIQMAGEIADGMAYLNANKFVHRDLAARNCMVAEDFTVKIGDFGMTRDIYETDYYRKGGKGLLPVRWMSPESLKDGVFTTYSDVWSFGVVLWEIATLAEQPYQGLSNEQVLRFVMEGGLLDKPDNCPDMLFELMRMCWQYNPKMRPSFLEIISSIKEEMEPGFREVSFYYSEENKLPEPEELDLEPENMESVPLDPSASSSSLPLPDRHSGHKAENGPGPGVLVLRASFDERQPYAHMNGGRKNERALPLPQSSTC
Protocol: MCF7 cells were plated in a 24-well plate and incubated overnight at 37° C. in a 6.5% CO2 humidified atmosphere in DMEM+glutamine with 10% fetal calf serum (FCS) at a cell number to generate close to confluent monolayers. Cells were washed twice and placed in 0.1 M HEPES-NaOH, pH 7.5, 120 mM NaCl, 5 mM KCl, 1.2 mM MgSO4, 0.1% bovine serum albumin (binding buffer). The plate was preincubated at 4° C. for 1 hour. For the assay wells, long-R3-IGF-1 or IGF-MTX conjugate was added at the indicated concentration in binding buffer (positive controls had no addition). I^125-labeled IGF-1 was then added in the amount of 0.03 μCi per well. Plates were incubated at 4° C. overnight, and then washed twice in binding buffer. Cells were lysed with 300 mM NaOH, 1% SDS. The lysate of each well was counted by scintillation counting. Each condition was assayed in duplicate.
A competition binding assay between the IGF-MTX conjugate and radiolabelled IGF-1 was performed as described in the Materials and Methods. MCF7 cells were grown to near confluence, and incubated with unconjugated long-R3-IGF-1 or conjugated IGF-MTX in competition with radiolabelled wild-type IGF-1 (FIG. 9).

LNCAP cells [6] = assay: In vitro proliferation assay, LNCaP (Example 8); format: cell-based, human
Protocol: LNCaP, MCF7 and MCF7-L cell lines were plated, respectively, in a 96-well plate at 5,000 cells per well in RPMI+glutamine+10% FCS medium in 100 μl. After 24 hours, 100 μl fresh medium was added containing no drug (control), IGF-MTX or MTX at the indicated concentration.

MCF7 tumors = assay: MCF7 xenograft tumor growth in nu/nu mice; format: in vivo, mouse
Protocol: (§2) MCF7 cells (human breast adenocarcinoma cell line) were grown in Eagle's minimal essential medium supplemented with 0.1 mg/ml insulin and 10% FCS. The estrogen-dependent MCF7-L cell line was a gift from Deepali Sachdev of the University of Minnesota. MCF7-L cells were grown in modified IMEM medium (Invitrogen, Carlsbad, Calif., USA) supplemented with 0.1 mg/ml insulin. LNCaP cells (metastatic human prostatic adenocarcinoma) were grown in RPMI supplemented with glutamine and 10% FCS (Invitrogen, Carlsbad, Calif., USA). Cells were grown at 37° C. in a 5% CO2 humidified atmosphere. In each case, cells were grown to approximately two-thirds confluence, harvested by trypsinization, washed with rich medium and then washed twice with PBS and resuspended in phosphate buffered saline in BD matrigel matrix (Becton Dickinson, Franklin Lakes, N.J., USA). Cells were injected intradermally in mice on the back. An estrogen pellet (0.5 mg estradiol, 60-day release, Innovative Research of America, Sarasota, Fla., USA) was implanted subcutaneously between the shoulder blades two days before implanting MCF7 and MCF7-L cells. MCF7 and MCF7-L cells were implanted in 8-week-old female nu/nu mice. LNCaP cells were implanted in 8-week-old male nu/nu mice. […] MTX was dissolved in PBS. Untreated vehicle controls received 2 mM HCl, 1% glycerol. Drug was administered intravenously by tail-vein injection in a volume of 12.5 μl per gram mouse weight. All studies were approved by the University of Minnesota Animal Care and Use Committee and conformed to relevant ethical guidelines.
Three in vivo studies were performed to assess the targeting of MTX with long-R3-IGF-1. In the initial preliminary study, breast cancer MCF7 cells were implanted intradermally in the backs of nude mice.

MCF7-L tumors = assay: MCF7-L xenograft tumor growth in nu/nu mice; format: in vivo, mouse; conditions: day 22; IGF-MTX 10 nmol of MTX/g or free MTX 40 nmol/g, tail vein, days 0 and 5
Protocol: as §2, with “Drug was administered intravenously by tail-vein injection in a volume of 12.5 μl per gram mouse weight. All studies were approved by the University of Minnesota Animal Care and Use Committee and conformed to relevant ethical guidelines.” left out

LNCAP tumors [7] = assay: LNCaP xenograft tumor growth in nu/nu mice; format: in vivo, mouse; conditions: for fold lower dose at which it is or appears more effective than free MTX: LNCaP xenografts (prostate cancer model in mice)
Protocol: as §2
In a final in vivo study, prostate cancer LNCaP cells were implanted intradermally on day 0 in mice, which were then randomized to different treatment groups.

[8] = IGF-MTX- and MTX-related toxicity in mice (ill effects, body weight); conditions: mouse, in vivo
Protocol: as §2

LNCAP cells [9] = assay: LNCAP proliferation in vitro (Example 5, cell counting kit-8)
Protocol: LNCAP cells were plated in a 96-well plate at 3,000 cells per well in RPMI medium supplemented with 10% fetal bovine serum (FBS). After incubation overnight, the medium in the wells was replaced with 100 μl per well of RPMI supplemented with 0.1% FBS. […] After incubation for 4 days, cell proliferation was assayed with the cell counting kit-8 (Dojindo Molecular Technologies, Gaithersburg, Md.).

FSAII tumors = assay: FSAII tumor growth in vivo in mice; design: species or system mouse
Protocol: FSAII testing. Six-week old female mice were injected subcutaneously in the thigh with 200,000 FSAII cells each in serum-free medium. Tumors were allowed to grow until they reached an average volume of 100 mm^3 (calculated as length×breadth^2). At that time, treatment was initiated. […] A fifth group of mice was untreated controls. Each group contained five mice. Mice were treated on days 0, 2, and 5. Tumor growth was measured every second day.

LNCAP tumors [10] = format: in vivo, mouse
Protocol: LNCAP testing. Eight-week old athymic male mice (nu/nu) were injected subcutaneously in the thigh with 1 million LNCAP cells in serum-free medium. Tumors were allowed to grow until they reached an average size of 100 mm^3. […] A fifth group of mice was untreated controls.

type 1 IGF receptor = conditions: cited from earlier work
[11] = high dose 60 μmoles/kg methotrexate, intraperitoneally, days 0, 2 and 5
[12] = low dose conjugate vs high dose methotrexate

Compound: O=P1(N(CCCl)CCCl)NCCCO1 (centres unmarked) [cyclophosphamide]
- maximum safe dosage [1]: approximately 5 millimoles per meter squared per 3 weeks
- minimum effective dosage [1]: approximately 3 millimoles per meter squared per 3 weeks

Compound: CC(=O)O[C@@]12CO[C@@H]1C[C@H](O)[C@@]1(C)C(=O)[C@H](O)C3=C(C)[C@@H](OC(=O)[C@H](O)[C@@H](NC(=O)OC(C)(C)C)c4ccccc4)C[C@@](O)([C@@H](OC(=O)c4ccccc4)[C@H]21)C3(C)C [docetaxel]
- maximum safe dosage ([1]; cumulative per 3 weeks): about 120 micromoles per meter squared per 3 weeks
- minimum effective dosage ([1]; lowest dosage usually used): about 70 micromoles per meter squared per 3 weeks

Compound: COc1cccc2c1C(=O)c1c(O)c3c(c(O)c1C2=O)C[C@@](O)(C(=O)CO)C[C@@H]3O[C@H]1C[C@H](N)[C@H](O)[C@H](C)O1 [doxorubicin]
- maximum safe dosage ([1]; cumulative per 3 weeks): approximately 130 micromoles per meter squared per 3 weeks
- minimum effective dosage ([1]; lowest dosage usually used): ~100 micromoles per meter squared per 3 weeks
- minimum effective dosage ([1]; per 3 weeks): about 60 mg/m^2

Compound: CC[C@]1(O)C[C@H]2CN(CCc3c([nH]c4ccccc34)[C@@](C(=O)OC)(c3cc4c(cc3OC)N(C=O)[C@H]3[C@@](O)(C(=O)OC)[C@H](OC(C)=O)[C@]5(CC)C=CCN6CC[C@]43[C@@H]65)C2)C1 [vincristine]
- maximum safe dosage ([1]; cumulative per 3 weeks): about 8 micromoles per meter squared per 3 weeks
- minimum effective dosage ([1]; lowest dosage usually used): about 3.25 micromoles per meter squared per 3 weeks

Compound: IGF-1: human insulin-like growth factor-1, SEQ ID NO:1
- stimulation of proliferation [2]: stimulated proliferation
- stimulation of proliferation [3]: stimulated proliferation
- stimulation of proliferation [4]: stimulated proliferation
- stimulation of proliferation [5]: stimulated proliferation

Compound: IGF-MTX
- binding to the IGF receptor compared with long-R3-IGF-1 (IGF-1R): bound more tightly to the IGF receptor than long-R3-IGF-1 at most concentrations
- inhibition of proliferation compared to untreated control cells (LNCAP cells [6]; LNCaP): inhibited proliferation of LNCaP cells
- higher concentration than free MTX required to achieve the same inhibitory effect (LNCAP cells [6]; LNCaP cells in vitro): about 2 times
- IC50 (LNCAP cells [6]; LNCaP, RPMI + 10% FCS, 48 hours with drug, IGF-MTX as concentration of MTX groups): ~1000 nM
- MCF7 tumor growth (MCF7 tumors; 10 nmol of MTX/g intravenous, days 0, 4 and 8, 12 days of observation): showed no signs of tumor growth on average
- fold lower molar dosage at which more effective than free MTX (MCF7 tumors; MCF7 xenografts): 4 fold
- difference in tumor volume on average between IGF-MTX conjugate-treated group and MTX-treated group (MCF7 tumors; day 12, IGF-MTX 10 nmol of MTX/g vs free MTX 40 nmol/g): ~8 fold
- MCF7-L tumor growth inhibition (MCF7-L tumors): inhibited about equally
- LNCaP tumor growth inhibition (LNCAP tumors [7]; 1.28 nmol/g (as MTX), single tail vein injection on day 5): did not inhibit tumor growth
- LNCaP tumor size compared to mice treated with higher doses of free MTX (50, 20 or 8 nmol/g) (LNCAP tumors [7]; 3.2 nmol/g (as MTX), single tail vein injection on day 5): much smaller
- LNCaP tumor size compared to mice treated with higher doses of free MTX (50, 20 or 8 nmol/g) (LNCAP tumors [7]; 8 nmol/g (as MTX), single tail vein injection on day 5): much smaller
- fold lower dose at which more effective than free MTX (statistically significant) (LNCAP tumors [7]; 8 nmol/g IGF-MTX vs. 50 nmol/g MTX, day 98, listed as IGF-methotrexate conjugate): 6.5 fold
- fold lower dose at which it is or appears more effective than free MTX (LNCAP tumors [7]; listed as IGF-MTX conjugate): more than 15 fold
- fold lower dose at which it is or appears more effective than free MTX (LNCAP tumors [7]; listed as IGF-methotrexate conjugate): 15 fold
- Average weight of mice, Day 0 [8]: 17.8 g
- Average weight of mice, Day 4 [8]: 18.6 g
- Average weight of mice, Day 20 [8]: 20.1 g
- Cell number (relative units) (LNCAP cells [9]; Minimal med. (0.1% FBS), MTX conc. 2 nM): .677 ± .057 relative units
- Cell number (relative units) (LNCAP cells [9]; Minimal med. (0.1% FBS), MTX conc. 8 nM): .794 ± .028 relative units
- Cell number (relative units) (LNCAP cells [9]; Minimal med. (0.1% FBS), MTX conc. 32 nM): .921 ± .014 relative units
- Cell number (relative units) (LNCAP cells [9]; Minimal med. (0.1% FBS), MTX conc. 125 nM): .921 ± .014 relative units
- Cell number (relative units) (LNCAP cells [9]; Minimal med. (0.1% FBS), MTX conc. 500 nM): .635 ± .038 relative units
- Cell number (relative units) (LNCAP cells [9]; Minimal med. (0.1% FBS), MTX conc. 2000 nM): .255 ± .014 relative units
- Cell number (relative units) (LNCAP cells [9]; Rich medium (10% FBS), MTX conc. 2 nM): 0.716 ± .021 relative units
- Cell number (relative units) (LNCAP cells [9]; Rich medium (10% FBS), MTX conc. 8 nM): 0.674 ± .036 relative units
- Cell number (relative units) (LNCAP cells [9]; Rich medium (10% FBS), MTX conc. 32 nM): 1.248 ± .018 relative units
- Cell number (relative units) (LNCAP cells [9]; Rich medium (10% FBS), MTX conc. 125 nM): 0.891 ± .017 relative units
- Cell number (relative units) (LNCAP cells [9]; Rich medium (10% FBS), MTX conc. 500 nM): 0.381 ± .008 relative units
- Cell number (relative units) (LNCAP cells [9]; Rich medium (10% FBS), MTX conc. 2000 nM): 0.234 ± .004 relative units

Compound: insulin-methotrexate conjugate: approximately 3 MTX attached to each insulin by direct amide bonds to the two alpha amino groups and one lysine side chain
- effect on FSAII tumor growth (FSAII tumors; [11]): appeared to very significantly slow tumor growth
- toxicity (death of mice) (FSAII tumors; [11]): killed all five mice by one day following the third treatment
- effect on FSAII tumor growth (FSAII tumors; low dose 15 μmoles/kg methotrexate, intraperitoneally, days 0, 2 and 5): significantly slowed tumor growth
- activity against FSAII tumors in vivo relative to unconjugated methotrexate (FSAII tumors; [12]): at least 4 fold
- effect on LNCAP tumor growth (LNCAP tumors [10]; low dose 15 μmoles/kg methotrexate, days 0, 4, 8, 18, 22 and 26): appeared to slow tumor growth
- lower concentration at which effective against LNCAP tumors relative to unconjugated methotrexate (LNCAP tumors [10]; [12]): at least 2.6 times

Compound: insulin: insulin
- stimulation of proliferation [2]: stimulated proliferation
- stimulation of proliferation [3]: stimulated proliferation
- stimulation of proliferation [4]: stimulated proliferation
- stimulation of proliferation [5]: stimulated proliferation

Compound: long-R3-IGF-1: variant of IGF-1, SEQ ID NO:4, reduced binding affinity for soluble IGF binding proteins (GroPep)
- binding affinity for the type 1 IGF receptor compared to wild-type IGF-1 (type 1 IGF receptor): equal binding affinity
